Experiments:
[1] = tested on: ALOMY: black-grass (Alopecurus myosuroides); assay: Post-emergent Test III, herbicidal activity in wheat and barley; type: in vivo; details: for pest or weed control at 35 g/ha: 35 g ai/ha; for pest or weed control at 70 g/ha: 70 g ai/ha; for GR50 ALOMY / GR80 ALOMY: probit analysis, 21 days after application; for GR50 ALOMY: dose for growth reduction of 50 percent; for GR80 ALOMY: dose for growth reduction of 80 percent
Procedure, shortened: (§1)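 GR20, GR50, GR80 and GR90 come from probit analysis of visual injury scores (0 = none, 100 = complete kill) taken 21 d after treatment. Foliar application was by track sprayer delivering 187 L/ha at five rates, from high down to 1/16×, onto greenhouse plants at the 2–3 leaf stage, with solvent-blank controls.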

[2] = tested on: KCHSC: kochia (Kochia scoparia); assay: as above; type: in vivo; details: for pest or weed control at 35 g/ha: 35 g ai/ha; for pest or weed control at 70 g/ha: 70 g ai/ha; for GR50 KCHSC / GR80 KCHSC: probit analysis, 21 days after application; for GR50 KCHSC: dose for growth reduction of 50 percent; for GR80 KCHSC: dose for growth reduction of 80 percent
Procedure, shortened: as §1

[3] = tested on: HORSS: barley, including spring and winter (Hordeum vulgare); assay: as above; type: in vivo
Procedure, shortened: as §1

[4] = tested on: LOLSS: ryegrass including, Italian ryegrass (Lolium multiflorum), rigid ryegrass (Lolium rigidum), annual ryegrass (Lolium multiflorum subsp. Gaudini); assay: as above; type: in vivo; details: probit analysis, 21 days after application; for GR50 LOLSS: dose for growth reduction of 50 percent; for GR80 LOLSS: dose for growth reduction of 80 percent
Procedure, shortened: as §1

[5] = tested on: APESV: bentgrass (Apera spica-venti); assay: as above; type: in vivo; details: for pest or weed control at 35 g/ha: 35 g ai/ha; for pest or weed control at 70 g/ha: 70 g ai/ha; for GR50 APESV / GR80 APESV: probit analysis, 21 days after application; for GR50 APESV: dose for growth reduction of 50 percent; for GR80 APESV: dose for growth reduction of 80 percent
Procedure, shortened: as §1

[6] = tested on: TRZSS: wheat, including spring and winter (Triticum aestivum); assay: as above; type: in vivo
Procedure, shortened: as §1

[7] = tested on: SETVI: green foxtail (Setaria viridis); assay: as above; type: in vivo
Procedure, shortened: as §1

[8] = tested on: MATSS: scented mayweed (Matricaria chamomilla), pineappleweed (Matricaria matricarioides); assay: as above; type: in vivo; details: for pest or weed control at 35 g/ha: 35 g ai/ha; for pest or weed control at 70 g/ha: 70 g ai/ha; for GR50 MATSS / GR80 MATSS: probit analysis, 21 days after application; for GR50 MATSS: dose for growth reduction of 50 percent; for GR80 MATSS: dose for growth reduction of 80 percent
Procedure, shortened: as §1

[9] = as above; type: in vivo, Lolium multiflorum, Lolium rigidum; details: Lolium multiflorum, post-emergence, 504 h, read-out: Visual Growth Reduction (%) 21 Days After Application LOLSS; for pest or weed control at 35 g/ha: 35 g ai/ha; for pest or weed control at 70 g/ha: 70 g ai/ha
Procedure, shortened: as §1

[10] = tested on: BROTE: downy brome (Bromus tectorum); assay: as above; type: in vivo; details: for pest or weed control at 35 g/ha: 35 g ai/ha; for pest or weed control at 70 g/ha: 70 g ai/ha; for GR50 BROTE / GR80 BROTE: probit analysis, 21 days after application; for GR50 BROTE: dose for growth reduction of 50 percent; for GR80 BROTE: dose for growth reduction of 80 percent
Procedure, shortened: as §1

[11] = Alopecurus myosuroides, post-emergence, 504 h, read-out: Visual Growth Reduction (%) 21 Days After Application ALOMY
[12] = Bassia scoparia, post-emergence, 504 h, read-out: Visual Growth Reduction (%) 21 Days After Application KCHSC
[13] = probit analysis, dose for growth reduction of 20 percent, 21 days after application, crop
[14] = Apera spica-venti, post-emergence, 504 h, read-out: Visual Growth Reduction (%) 21 Days After Application APESV
[15] = Matricaria chamomilla, post-emergence, 504 h, read-out: Visual Growth Reduction (%) 21 Days After Application MATSS
[16] = Bromus tectorum, post-emergence, 504 h, read-out: Visual Growth Reduction (%) 21 Days After Application BROTE

Compound COC(=O)c1nc(-c2ccc(Cl)c(F)c2)c(F)c(N)c1Cl [Compound 216] has a pest or weed control at 35 g/ha [1, 11] of 45 to 59%, a pest or weed control at 70 g/ha [1, 11] of 60 to 74% and a pest or weed control at 140 g/ha ([1]; Alopecurus myosuroides, post-emergence, 504 h, 140 g ai/ha, read-out: Visual Growth Reduction (%) 21 Days After Application ALOMY) of 75 to 84%. The “GR50 ALOMY” value [1] was 54 g ai/ha, the “GR80 ALOMY” value [1] was over 140 g ai/ha and the pest or weed control at 35 g/ha [2, 12] was 95 to 100%. For the same compound, the pest or weed control at 70 g/ha [2, 12] was 95 to 100%, the pest or weed control at 140 g/ha ([2]; Bassia scoparia, post-emergence, 504 h, 140 g ai/ha, read-out: Visual Growth Reduction (%) 21 Days After Application KCHSC) was 95 to 100% and the “GR50 KCHSC” value [2] was 1 g ai/ha. The “GR80 KCHSC” value [2] was 2 g ai/ha, the pest or weed control at 35 g/ha ([3]; Hordeum vulgare, post-emergence, 504 h, 35 g ai/ha, read-out: Visual Growth Reduction (%) 21 Days After Application HORSS) was 85 to 94% and the pest or weed control at 70 g/ha ([3]; Hordeum vulgare, post-emergence, 504 h, 70 g ai/ha, read-out: Visual Growth Reduction (%) 21 Days After Application HORSS) was 85 to 94%. The pest or weed control at 140 g/ha ([3]; Hordeum vulgare, post-emergence, 504 h, 140 g ai/ha, read-out: Visual Growth Reduction (%) 21 Days After Application HORSS) was 85 to 94%, the “GR20 HORSS” value [3, 13] was 1 g ai/ha and the “GR50 LOLSS” value [4] was 137 g ai/ha. The “GR80 LOLSS” value [4] was over 140 g ai/ha, the pest or weed control at 35 g/ha [5, 14] was 85 to 94% and the pest or weed control at 70 g/ha [5, 14] was 85 to 94%. For the same compound, the pest or weed control at 140 g/ha ([5]; Apera spica-venti, post-emergence, 504 h, 140 g ai/ha, read-out: Visual Growth Reduction (%) 21 Days After Application APESV) was 95 to 100%, the “GR50 APESV” value [5] was 6 g ai/ha and the “GR80 APESV” value [5] was 20 g ai/ha. The pest or weed control at 35 g/ha ([6]; Triticum aestivum, post-emergence, 504 h, 35 g ai/ha, read-out: Visual Growth Reduction (%) 21 Days After Application TRZSS) was 75 to 84%, the pest or weed control at 70 g/ha ([6]; Triticum aestivum, post-emergence, 504 h, 70 g ai/ha, read-out: Visual Growth Reduction (%) 21 Days After Application TRZSS) was 85 to 94% and the pest or weed control at 140 g/ha ([6]; Triticum aestivum, post-emergence, 504 h, 140 g ai/ha, read-out: Visual Growth Reduction (%) 21 Days After Application TRZSS) was 85 to 94%. The “GR20 TRZSS” value [6, 13] was 1 g ai/ha, the pest or weed control at 35 g/ha ([7]; Setaria viridis, post-emergence, 504 h, 35 g ai/ha, read-out: Visual Growth Reduction (%) 21 Days After Application SETVI) was 60 to 74% and the pest or weed control at 70 g/ha ([7]; Setaria viridis, post-emergence, 504 h, 70 g ai/ha, read-out: Visual Growth Reduction (%) 21 Days After Application SETVI) was 75 to 84%. For the same compound, the pest or weed control at 140 g/ha ([7]; Setaria viridis, post-emergence, 504 h, 140 g ai/ha, read-out: Visual Growth Reduction (%) 21 Days After Application SETVI) was 85 to 94%, the “GR50 SETVI” value ([7]; probit analysis, dose for growth reduction of 50 percent, 21 days after application) was 20 g ai/ha and the “GR80 SETVI” value ([7]; probit analysis, dose for growth reduction of 80 percent, 21 days after application) was 64 g ai/ha. For the same compound, the pest or weed control at 35 g/ha [8, 15] was 75 to 84%, the pest or weed control at 70 g/ha [8, 15] was 75 to 84% and the pest or weed control at 140 g/ha ([8]; Matricaria chamomilla, post-emergence, 504 h, 140 g ai/ha, read-out: Visual Growth Reduction (%) 21 Days After Application MATSS) was 85 to 94%. For the same compound, the “GR50 MATSS” value [8] was 10 g ai/ha, the “GR80 MATSS” value [8] was 62 g ai/ha and the pest or weed control at 35 g/ha [9] was 0 to 29%. It also gave a pest or weed control at 70 g/ha [9] of 30 to 44%, a pest or weed control at 140 g/ha ([9]; 140 g ai/ha) of 45 to 59% and a pest or weed control at 35 g/ha [10, 16] of 30 to 44%. The pest or weed control at 70 g/ha [10, 16] was 45 to 59%, the pest or weed control at 140 g/ha ([10]; Bromus tectorum, post-emergence, 504 h, 140 g ai/ha, read-out: Visual Growth Reduction (%) 21 Days After Application BROTE) was 45 to 59% and the “GR50 BROTE” value [10] was 136 g ai/ha. The “GR80 BROTE” value [10] was over 140 g ai/ha.

With Nc1c(F)c(-c2ccc(C(F)(F)F)c(F)c2F)nc(C(=O)O)c1Cl [Compound 167] the pest or weed control at 35 g/ha [1, 11] was 30 to 44%, the pest or weed control at 70 g/ha [1, 11] was 60 to 74% and the “GR50 ALOMY” value [1] was 57 g ai/ha. For the same compound, the “GR80 ALOMY” value [1] was 119 g ai/ha, the pest or weed control at 35 g/ha [2, 12] was 60 to 74% and the pest or weed control at 70 g/ha [2, 12] was 75 to 84%. For the same compound, the “GR50 KCHSC” value [2] was 23 g ai/ha, the “GR80 KCHSC” value [2] was 52 g ai/ha and the “GR50 LOLSS” value [4] was over 140 g ai/ha. The “GR80 LOLSS” value [4] was over 140 g ai/ha, the pest or weed control at 35 g/ha [5, 14] was 75 to 84% and the pest or weed control at 70 g/ha [5, 14] was 85 to 94%. The “GR50 APESV” value [5] was 20 g ai/ha, the “GR80 APESV” value [5] was 46 g ai/ha and the pest or weed control at 35 g/ha [8, 15] was 75 to 84%. For the same compound, the pest or weed control at 70 g/ha [8, 15] was 85 to 94%, the “GR50 MATSS” value [8] was 24 g ai/ha and the “GR80 MATSS” value [8] was 48 g ai/ha. For the same compound, the pest or weed control at 35 g/ha [9] was 0 to 29%, the pest or weed control at 70 g/ha [9] was 0 to 29% and the pest or weed control at 35 g/ha [10, 16] was 30 to 44%. The pest or weed control at 70 g/ha [10, 16] was 75 to 84%, the “GR50 BROTE” value [10] was 43 g ai/ha and the “GR80 BROTE” value [10] was 81 g ai/ha.

— patent US9113629B2, “4-amino-6-(4-substituted-phenyl)-picolinates and 6-amino-2-(4-substituted-phenyl)-pyrimidine-4-carboxylates and their use as herbicides” (DOW AGROSCIENCES LLC, priority 2013, dated 2015)
